Assay [1] has as its target ColQ1 (Bacillus cereus, UniProt B9J3S4). Description: Ex vivo pig-skin model, hydroxyproline quantification. Further details: species or system B. cereus. The following applies: pig-skin explants, 300 nM ColQ1, defined concentrations of compound, vs control. An excerpt: We established an ex vivo model based on pig skin to address the impact of our inhibitors on living mammalian tissue and on the contained collagen as the natural substrate of collagenase. We challenged the skin, prepared from the ear of freshly slaughtered pigs, with pure ColQ1 from B. cereus to degrade collagen. We assessed the activity of ColQ1 by quantifying the formation of hydroxyproline as an indicator for collagen turnover (Figure 4). Optimization of the assay conditions for the model consisted of examining different buffer conditions and different protein concentrations (Figures S1 and S2). To evaluate the potential effect of 25 on collagen turnover, we incubated the skin with ColQ1 in the absence and presence of defined concentrations of this compound. […] The good performance of our inhibitors in this model is a sound starting point for their subsequent testing under in vivo conditions. We expect that our inhibitors will accelerate the in vivo healing process, by preventing the distribution of infection. […]
Skin explants were obtained from freshly slaughtered pig ears, which were supplied by a local slaughterhouse. […] Absorbance was measured using a PHERAstar plate reader (BMG Labtech). The absorbance values were converted into the hydroxyproline concentration (μg/mL) using the calibration curve of hydroxyproline as a reference (Figure S3).

Assay [2] concerns the target peptidase domain of ColH (ColH-PD) (Hathewaya histolytica, UniProt Q46085). Description: biochemical. Further details: species or system Clostridium histolyticum.
The target in assay [3] is LasB (Pseudomonas aeruginosa, UniProt Q02RJ6). Description: biochemical. The conditions noted are these: LasB IC50, FRET-based assay.
Assay [4] has as its target T1, MMP-7 (Homo sapiens, UniProt P09237).
T1 sequence (P09237 95-267): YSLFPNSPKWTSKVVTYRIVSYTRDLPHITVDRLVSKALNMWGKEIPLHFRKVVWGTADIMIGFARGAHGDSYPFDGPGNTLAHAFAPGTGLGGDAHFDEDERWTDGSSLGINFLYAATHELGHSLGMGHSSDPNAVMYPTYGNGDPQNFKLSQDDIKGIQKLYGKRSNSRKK
The experiment in a line: MMP-7 off-target inhibition. The class given is biochemical. The conditions noted are these: read-out: MMP-7 % inhibition @ 100 μM; 100 μM compound. The source says: Previously, we described N-aryl mercaptoacetamides with high selectivity for the bacterial over a broad range of human MMPs.[29],[30] MMPs are calcium-dependent zinc metalloproteases that play a pivotal role in numerous biochemical processes in humans.[39],[40] Based on the depth of their S1′ binding pocket, MMPs can be divided into three classes: deep (e.g., MMP-3 and -14), intermediate (e.g., MMP-2 and -8), and shallow (e.g., MMP-1 and -7). With the aim to explore the interactions of our inhibitors with all three pocket types, which could help us to assess potential effects on other not-tested representatives, we chose a panel of six MMPs, comprising two members of each class. In addition, HDAC-3, HDAC-8, and TACE (ADAM-17)—enzymes involved in gene expression and the processing of TNF-α,[41],[42] respectively—were selected as important additional human off-targets.

Where only a bound is given, the exact number is not on record here.

Sequence of peptidase domain of ColH (ColH-PD) (Q46085 331-721 limits assumed): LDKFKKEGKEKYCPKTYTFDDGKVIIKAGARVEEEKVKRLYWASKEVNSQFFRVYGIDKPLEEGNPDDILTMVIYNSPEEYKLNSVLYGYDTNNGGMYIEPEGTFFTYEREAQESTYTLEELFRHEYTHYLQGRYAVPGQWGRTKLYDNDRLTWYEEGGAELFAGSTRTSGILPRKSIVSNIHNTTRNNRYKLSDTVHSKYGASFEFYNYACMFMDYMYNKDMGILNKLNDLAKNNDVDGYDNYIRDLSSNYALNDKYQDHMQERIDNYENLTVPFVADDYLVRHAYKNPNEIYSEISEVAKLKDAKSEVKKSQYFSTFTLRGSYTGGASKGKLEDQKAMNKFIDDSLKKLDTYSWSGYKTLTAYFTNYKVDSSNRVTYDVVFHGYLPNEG
Sequence of LasB (Q02RJ6 198-498): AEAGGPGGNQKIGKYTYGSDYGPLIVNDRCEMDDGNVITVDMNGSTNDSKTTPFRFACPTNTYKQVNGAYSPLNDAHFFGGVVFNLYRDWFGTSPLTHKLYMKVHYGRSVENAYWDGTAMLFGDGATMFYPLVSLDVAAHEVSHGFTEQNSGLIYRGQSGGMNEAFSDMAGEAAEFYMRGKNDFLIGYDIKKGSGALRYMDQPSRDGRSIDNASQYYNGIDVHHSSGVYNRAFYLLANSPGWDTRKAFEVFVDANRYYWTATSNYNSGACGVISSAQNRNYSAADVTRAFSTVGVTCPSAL
Sequence of ColQ1 (B9J3S4 94-965): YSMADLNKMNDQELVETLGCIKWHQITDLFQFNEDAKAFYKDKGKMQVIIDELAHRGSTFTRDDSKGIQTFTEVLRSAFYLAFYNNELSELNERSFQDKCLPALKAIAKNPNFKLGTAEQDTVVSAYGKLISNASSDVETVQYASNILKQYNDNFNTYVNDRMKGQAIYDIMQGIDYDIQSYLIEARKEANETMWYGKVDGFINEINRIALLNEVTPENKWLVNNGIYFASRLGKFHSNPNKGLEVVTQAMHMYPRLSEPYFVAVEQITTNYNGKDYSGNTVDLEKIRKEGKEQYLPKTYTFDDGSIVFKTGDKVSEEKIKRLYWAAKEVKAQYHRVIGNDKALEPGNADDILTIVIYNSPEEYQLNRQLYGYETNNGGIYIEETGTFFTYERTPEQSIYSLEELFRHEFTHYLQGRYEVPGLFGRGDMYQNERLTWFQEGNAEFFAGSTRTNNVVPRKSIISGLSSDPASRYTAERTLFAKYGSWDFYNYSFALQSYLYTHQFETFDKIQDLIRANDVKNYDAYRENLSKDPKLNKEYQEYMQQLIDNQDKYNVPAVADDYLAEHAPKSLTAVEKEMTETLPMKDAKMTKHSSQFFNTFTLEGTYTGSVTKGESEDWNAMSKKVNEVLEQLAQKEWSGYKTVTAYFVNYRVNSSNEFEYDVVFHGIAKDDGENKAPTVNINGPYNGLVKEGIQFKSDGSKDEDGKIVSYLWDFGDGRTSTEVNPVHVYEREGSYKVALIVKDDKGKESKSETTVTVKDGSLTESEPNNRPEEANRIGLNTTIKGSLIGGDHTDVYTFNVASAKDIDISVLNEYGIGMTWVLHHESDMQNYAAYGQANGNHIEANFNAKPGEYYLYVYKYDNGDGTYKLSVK

A word on the IC50: it is the point on the concentration scale where inhibition reaches its midpoint. For orientation: inhibition means the change of the read-out against control, counted positive when it falls. On to `CC(=O)c1ccc(N2C(=O)CC(S)C2=O)cc1` (stereo not drawn) [Compound 25, 1-(4-Acetylphenyl)-3-mercaptopyrrolidine-2,5-dione], for which the “hydroxyproline released (collagenolytic activity of ColQ1)” value in assay [1] was “significantly reduced amount of hydroxyproline released compared to control”. In addition, the values for the IC50 in assay [2] and in assay [3] were 0.06 ± 0.01 µM and 64 ± 7.5 µM, respectively. The inhibition at 1 µM in assay [2] (read-out: ColH-PD % inhibition @ 1 μM) was determined as 95%. Further, the inhibition at 100 µM in assay [2] (read-out: ColH-PD % inhibition @ 100 μM) is 96 ± 2%; in assay [4] it was less than 10%.

(Values after publication PMC7429951 (Journal of Medicinal Chemistry, 2020).)
